According to patent US8309554B2 (priority 2008, dated 2012):
Like-named read-outs stand apart in the source and are kept apart here.

Test system: H460
Experiment: cells
Assay type: cell-based
Details: Homo sapiens
[1] = NCI-H460, read-out: 2 h Air H460 monolayer IC50
[2] = NCI-H460, read-out: 2 h N2 H460 monolayer IC50

| Compound | IC50 [1] | IC50 [2] |
| --- | --- | --- |
| Cc1cc(OS(=O)(=O)Cc2ccsc2[N+](=O)[O-])ccc1N(CCCl)CCCl [TH-1103] | 0.7 µM | 0.1 µM |
| Cn1c(CS(=O)(=O)Nc2ccc(N(CCCl)CCCl)cc2)cnc1[N+](=O)[O-] [TH-1104] | 7.4 µM | 6.1 µM |
| O=[N+]([O-])c1nccn1CS(=O)(=O)Nc1ccc(N(CCCl)CCCl)cc1 [TH-1105] | 7.6 µM | 4.2 µM |
| Cc1cc(OS(=O)(=O)Cn2ccnc2[N+](=O)[O-])ccc1N(CCCl)CCCl [TH-1106] | 0.9 µM | 0.2 µM |
| CN(c1ccc(N(CCCl)CCCl)cc1)S(=O)(=O)Cc1cnc([N+](=O)[O-])n1C [TH-1108] | 15 µM | 11 µM |
| Cc1cc(OS(=O)(=O)Cc2ncc([N+](=O)[O-])n2C)ccc1N(CCCl)CCCl [TH-1110] | 1.4 µM | 2.1 µM |
| Cc1cc(OS(=O)(=O)Cc2ncn(C)c2[N+](=O)[O-])ccc1N(CCCl)CCCl [TH-1111] | 4.7 µM | 2.5 µM |
| Cc1cc(OS(=O)(=O)Cc2nc(C)n(C)c2[N+](=O)[O-])ccc1N(CCCl)CCCl [TH-1112] | 1.4 µM | 1.7 µM |
| Cc1cc(OS(=O)(=O)C(C)(C)c2ccc([N+](=O)[O-])cc2)ccc1N(CCCl)CCCl [TH-1115] | 13 µM | 3 µM |
| Cc1cc(OS(=O)(=O)C(C)(C)c2ccc([N+](=O)[O-])cc2)ccc1N(CCBr)CCBr [TH-1116] | 1.1 µM | 0.6 µM |
| Cc1cc(OS(=O)(=O)Cc2ccoc2[N+](=O)[O-])ccc1N(CCCl)CCCl [TH-1117] | 2.3 µM | 1.1 µM |
| CN(c1ccc(N(CCCl)CCCl)cc1)S(=O)(=O)Cc1ccsc1[N+](=O)[O-] [TH-1118] | 12.9 µM | 6.7 µM |
| Cn1c(CN(c2ccc(N(CCCl)CCCl)cc2)S(=O)(=O)CCl)cnc1[N+](=O)[O-] [TH-1119] | > 300 µM | > 300 µM |
| Cc1cc(OS(=O)(=O)C(C)(C)c2ccsc2[N+](=O)[O-])ccc1N(CCCl)CCCl [TH-1121] | 1.3 µM | 0.3 µM |
| CC(c1ccc([N+](=O)[O-])cc1)S(=O)(=O)N(C)c1ccc(N(CCCl)CCCl)cc1 (centres unmarked) [TH-1122] | > 300 µM | > 300 µM |
| CN(c1ccc(N(CCCl)CCCl)cc1)S(=O)(=O)Cc1ccc([N+](=O)[O-])cc1 [TH-1123] | > 300 µM | > 300 µM |
| CN(c1ccc(N(CCCl)CCCl)cc1)S(=O)(=O)C(C)(C)c1ccc([N+](=O)[O-])cc1 [TH-1124] | 289 µM | 243 µM |
| Cc1cc(CS(=O)(=O)N(C)c2ccc(N(CCCl)CCCl)cc2)c([N+](=O)[O-])s1 [TH-1125] | 148 µM | 69 µM |
| Cn1c(CN(c2ccc(N(CCCl)CCCl)cc2)S(=O)(=O)C(F)(F)F)cnc1[N+](=O)[O-] [TH-1128] | 267 µM | 294 µM |
| CN(c1ccc(N(CCCl)CCCl)cc1)S(=O)(=O)Cc1nc(-c2ccccc2)c([N+](=O)[O-])n1C [TH-1129] | 6.9 µM | 3.6 µM |
| CN(c1ccc(N(CCCl)CCCl)cc1)S(=O)(=O)C(C)(C)c1nc(-c2ccccc2)c([N+](=O)[O-])n1C [TH-1130] | 122 µM | 65 µM |
| Cc1cc(CS(=O)(=O)Oc2ccc(N(CCCl)CCCl)c(C)c2)c([N+](=O)[O-])s1 [TH-1131] | 1 µM | 0.3 µM |
| Cc1cc(C(C)(C)S(=O)(=O)Oc2ccc(N(CCCl)CCCl)c(C)c2)c([N+](=O)[O-])s1 [TH-1132] | 2 µM | 0.3 µM |
| O=[N+]([O-])c1nccn1CS(=O)(=O)Nc1cc(F)c(N(CCCl)CCCl)c(F)c1 [TH-1133] | 11.3 µM | 5.9 µM |
| Cc1cc(OS(=O)(=O)C(C)(C)n2ccnc2[N+](=O)[O-])ccc1N(CCCl)CCCl [TH-1134] | 0.2 µM | < 0.1 µM |
